In this series the test system is CCRIS mutagenicity, Ames/micronucleus/aberration tests. The series is described as follows: CCRIS mutagenicity studies.
[1] abbreviates: Test System: AMES SALMONELLA TYPHIMURIUM, Strain/Indicator: TA98, Metabolic Activation: NONE, Method: PREINCUBATION
[2] abbreviates: Test System: AMES SALMONELLA TYPHIMURIUM, Strain/Indicator: TA100, Metabolic Activation: NONE, Method: PREINCUBATION
Where [3] appears, read: Test System: AMES SALMONELLA TYPHIMURIUM, Strain/Indicator: TA98, Metabolic Activation: NONE, Method: STANDARD PLATE.
The mark [4] stands for this setting: Test System: AMES SALMONELLA TYPHIMURIUM, Strain/Indicator: TA100, Metabolic Activation: NONE, Method: STANDARD PLATE.
Setting [5] is: Test System: AMES SALMONELLA TYPHIMURIUM, Strain/Indicator: TA1535, Metabolic Activation: NONE, Method: STANDARD PLATE.
Where [6] appears, read: Test System: AMES SALMONELLA TYPHIMURIUM, Strain/Indicator: TA1537, Metabolic Activation: NONE, Method: STANDARD PLATE.

The source made the active and inactive calls. No rule for the calls is given here.

Regarding `COc1ccc(C=O)cc1`, the mutagenic call runs as follows: (Test System: AMES SALMONELLA TYPHIMURIUM, Strain/Indicator: TA97, Metabolic Activation: NONE, Method: PREINCUBATION) “inactive; negative”; (Test System: AMES SALMONELLA TYPHIMURIUM, Strain/Indicator: TA97, Metabolic Activation: RAT, LIVER, S-9, AROCLOR 1254, Method: PREINCUBATION) “inactive; negative”; under setting [1], “inactive; negative”; (Test System: AMES SALMONELLA TYPHIMURIUM, Strain/Indicator: TA98, Metabolic Activation: RAT LIVER S-9, PHENOBARBITAL AND BETA-NAPHTHOFLAVONE, Method: PREINCUBATION) “inactive; negative”; under setting [2], “inactive; negative”; (Test System: AMES SALMONELLA TYPHIMURIUM, Strain/Indicator: TA100, Metabolic Activation: RAT LIVER S-9, PHENOBARBITAL AND BETA-NAPHTHOFLAVONE, Method: PREINCUBATION) “inactive; negative”. Moreover, the mutagenic call (Test System: AMES SALMONELLA TYPHIMURIUM, Strain/Indicator: TA102, Metabolic Activation: NONE, Method: PREINCUBATION) was “inactive; negative”; the mutagenic call (Test System: AMES SALMONELLA TYPHIMURIUM, Strain/Indicator: TA102, Metabolic Activation: RAT, LIVER, S-9, AROCLOR 1254, Method: PREINCUBATION) was “inactive; negative”; the mutagenic call (Test System: AMES SALMONELLA TYPHIMURIUM, Strain/Indicator: TA1535, Metabolic Activation: NONE, Method: PREINCUBATION) was “inactive; negative”; the mutagenic call (Test System: AMES SALMONELLA TYPHIMURIUM, Strain/Indicator: TA1535, Metabolic Activation: RAT LIVER S-9, PHENOBARBITAL AND BETA-NAPHTHOFLAVONE, Method: PREINCUBATION) was “inactive; negative”; the mutagenic call (Test System: AMES SALMONELLA TYPHIMURIUM, Strain/Indicator: TA1537, Metabolic Activation: NONE, Method: PREINCUBATION) was “inactive; negative”; the mutagenic call (Test System: AMES SALMONELLA TYPHIMURIUM, Strain/Indicator: TA1537, Metabolic Activation: RAT LIVER S-9, PHENOBARBITAL AND BETA-NAPHTHOFLAVONE, Method: PREINCUBATION) was “inactive; negative”. The mutagenic call runs as follows: (Test System: AMES SALMONELLA TYPHIMURIUM, Strain/Indicator: TA1538, Metabolic Activation: NONE, Method: PREINCUBATION) “inactive; negative”; (Test System: AMES SALMONELLA TYPHIMURIUM, Strain/Indicator: TA1538, Metabolic Activation: RAT LIVER S-9, PHENOBARBITAL AND BETA-NAPHTHOFLAVONE, Method: PREINCUBATION) “inactive; negative”; (Test System: E. COLI, Strain/Indicator: WP2UVRA, Metabolic Activation: NONE, Method: PREINCUBATION) “inactive; negative”; (Test System: E. COLI, Strain/Indicator: WP2UVRA, Metabolic Activation: RAT LIVER S-9, PHENOBARBITAL AND BETA-NAPHTHOFLAVONE, Method: PREINCUBATION) “inactive; negative”; (Test System: MOUSE LYMPHOMA, Strain/Indicator: L5178Y (TK+/TK-), Metabolic Activation: NONE, Method: SUSPENSION/PLATE) “active; positive”; (Test System: MOUSE LYMPHOMA, Strain/Indicator: L5178Y (TK+/TK-), Metabolic Activation: RAT, LIVER, S-9, AROCLOR 1254, Method: SUSPENSION/PLATE) “active; positive. reevaluation of results: positive”. The mutagenic call (Test System: Mouse lymphoma, Strain/Indicator: L5178Y (tk+/tk-), Metabolic Activation: None, Method: Suspension/plate) is “inactive; negative”.

For `C1CSCCO1`, the mutagenic call is, setting by setting: under setting [3], “inactive; negative”; (Test System: AMES SALMONELLA TYPHIMURIUM, Strain/Indicator: TA98, Metabolic Activation: S-9, Method: STANDARD PLATE) “inactive; negative”; under setting [4], “inactive; negative”; (Test System: AMES SALMONELLA TYPHIMURIUM, Strain/Indicator: TA100, Metabolic Activation: S-9, Method: STANDARD PLATE) “inactive; negative”; under setting [5], “inactive; negative”; (Test System: AMES SALMONELLA TYPHIMURIUM, Strain/Indicator: TA1535, Metabolic Activation: S-9, Method: STANDARD PLATE) “inactive; negative”. In addition, the mutagenic call by setting is: under setting [6], “inactive; negative”; (Test System: AMES SALMONELLA TYPHIMURIUM, Strain/Indicator: TA1537, Metabolic Activation: S-9, Method: STANDARD PLATE) “inactive; negative”; (Test System: AMES SALMONELLA TYPHIMURIUM, Strain/Indicator: TA1538, Metabolic Activation: NONE, Method: STANDARD PLATE) “inactive; negative”; (Test System: AMES SALMONELLA TYPHIMURIUM, Strain/Indicator: TA1538, Metabolic Activation: S-9, Method: STANDARD PLATE) “inactive; negative”.

Consider `CC(=O)Nc1cccc2cccnc12`, for which the mutagenic call runs as follows: under setting [1], “inactive; negative”; (Test System: AMES SALMONELLA TYPHIMURIUM, Strain/Indicator: TA98, Metabolic Activation: RAT, LIVER, S-9, KANECHLOR 500, Method: PREINCUBATION) “inactive; negative”; under setting [2], “inactive; negative”; (Test System: AMES SALMONELLA TYPHIMURIUM, Strain/Indicator: TA100, Metabolic Activation: RAT, LIVER, S-9, KANECHLOR 500, Method: PREINCUBATION) “active; positive”; (Test System: AMES SALMONELLA TYPHIMURIUM, Strain/Indicator: TA100, Metabolic Activation: RAT, LIVER, S-9, PHENOBARBITAL AND 5,6-BENZOFLAVONE, Method: PREINCUBATION) “active; positive”; (Test System: AMES SALMONELLA TYPHIMURIUM, Strain/Indicator: TA100, Metabolic Activation: S-9, Method: PREINCUBATION) “active; positive”.

In the case of `CC(C(=O)O)c1ccc(Oc2nccs2)cc1` (configuration not stated), the mutagenic call is, setting by setting: under setting [3], “inactive; negative”; (Test System: AMES SALMONELLA TYPHIMURIUM, Strain/Indicator: TA98, Metabolic Activation: RAT, LIVER, S-9, AROCLOR 1254, Method: STANDARD PLATE) “inactive; negative”; under setting [4], “inactive; negative”; (Test System: AMES SALMONELLA TYPHIMURIUM, Strain/Indicator: TA100, Metabolic Activation: RAT, LIVER, S-9, AROCLOR 1254, Method: STANDARD PLATE) “inactive; negative”; under setting [5], “inactive; negative”; (Test System: AMES SALMONELLA TYPHIMURIUM, Strain/Indicator: TA1535, Metabolic Activation: RAT, LIVER, S-9, AROCLOR 1254, Method: STANDARD PLATE) “inactive; negative”. Besides, the mutagenic call was “inactive; negative” under setting [6]; “inactive; negative” (Test System: AMES SALMONELLA TYPHIMURIUM, Strain/Indicator: TA1537, Metabolic Activation: RAT, LIVER, S-9, AROCLOR 1254, Method: STANDARD PLATE); “inactive; negative” (Test System: E. COLI, Strain/Indicator: WP2, Metabolic Activation: NONE, Method: STANDARD PLATE); “inactive; negative” (Test System: E. COLI, Strain/Indicator: WP2, Metabolic Activation: RAT, LIVER, S-9, AROCLOR 1254, Method: STANDARD PLATE); “inactive; negative” (Test System: E. COLI, Strain/Indicator: WP2 UVRA, Metabolic Activation: NONE, Method: STANDARD PLATE); “inactive; negative” (Test System: E. COLI, Strain/Indicator: WP2 UVRA, Metabolic Activation: RAT, LIVER, S-9, AROCLOR 1254, Method: STANDARD PLATE).

(Values after PubChem BioAssay AID1259407 (Chemical Carcinogenesis Research Information System (CCRIS), 2018).)
